Results as given in patent publication US7335632B2, “Beta-secretase inhibitors and methods of use thereof” (CoMentis, Inc., priority 2001, dated 2008).

Legend:
[1] = biological target: memapsin 2 (Homo sapiens, UniProt P56817); test: Inhibition of memapsin 2 beta-secretase activity toward fluorogenic substrate FS-2; assay type: biochemical; conditions: pH 4, 37° C., 20 minutes pre-incubation, substrate FS-2, tight-binding model; read-out: M2 Ki
Protocol: Potency of compounds were determined by measurement of their inhibition of memapsin 2 activity toward a fluorescent substrate. […] Briefly, assays were performed at pH 4, 37° C., by pre-incubation of memapsin 2 enzyme with compound for 20 minutes. Activity measure was initiated by addition of a fluorogenic substrate FS-2 (Bachem Americas, Torrance, Calif.). Fluorescent signal increase over time was measured as a rate of hydrolysis of the peptide substrate.

[2] = test system: Aβ production; test: Cellular Aβ IC50 determination (Aβ40 sandwich ELISA); assay type: cell-based; conditions: Cricetulus griseus, Chinese hamster ovary cells over-expressing human APP695 with London and Swedish mutations, 24 h
Protocol: The potency of compounds against memapsin 2 activity was determined in a cellular assay of Aβ production. […] Chinese hamster ovary cells that over-express human APP695 with the London and Swedish mutations were seeded in multi-well plates at 10% confluency. Compounds were dissolved in DMSO to concentrations near 1 mM, and diluted into culture media to a final concentration near 4 μM (final 0.4% DMSO). Compounds were diluted serially and applied to cells in multi-well plates 48 h after seeding. Incubation was continued in 5% CO2 at 37 degrees C. for 24 h. Aliquots were removed and assayed for Aβ40 content using a sandwich ELISA (BioSource International). Amount of Aβ40 over the range of concentration of compounds, relative to control incubations, were fit to a 4-parameter IC50 model.

[3] = biological target: Cathepsin D (Homo sapiens, UniProt P07339); test: Inhibition of cathepsin D activity (substrate peptide […], MALDI-TOF); assay type: biochemical; conditions: pH 4.1, 37 degrees C., substrate NH3-[…]-CO2, MALDI-TOF; read-out: Cath D Ki
Chain of Cathepsin D (P07339 65-412, species assumed): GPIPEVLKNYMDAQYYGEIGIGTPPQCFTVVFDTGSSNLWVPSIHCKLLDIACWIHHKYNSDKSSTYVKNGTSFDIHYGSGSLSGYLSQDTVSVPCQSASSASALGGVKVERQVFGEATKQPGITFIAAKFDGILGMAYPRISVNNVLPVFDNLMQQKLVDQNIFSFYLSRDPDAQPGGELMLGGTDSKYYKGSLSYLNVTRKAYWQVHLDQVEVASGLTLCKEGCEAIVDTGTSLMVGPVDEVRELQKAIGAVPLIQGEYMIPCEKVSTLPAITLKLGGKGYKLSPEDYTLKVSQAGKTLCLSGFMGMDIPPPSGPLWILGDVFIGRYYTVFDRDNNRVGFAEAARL

[4] = biological target: T1, memapsin 1 (Homo sapiens, UniProt Q9Y5Z0); test: Inhibition of memapsin 1 beta-secretase activity (substrate peptide […], MALDI-TOF); assay type: biochemical; conditions: pH 4.1, 37 degrees C., substrate NH3-ELDLAVEFWHDR-CO2, MALDI-TOF; read-out: M1 Ki
T1 sequence (Q9Y5Z0 63-518): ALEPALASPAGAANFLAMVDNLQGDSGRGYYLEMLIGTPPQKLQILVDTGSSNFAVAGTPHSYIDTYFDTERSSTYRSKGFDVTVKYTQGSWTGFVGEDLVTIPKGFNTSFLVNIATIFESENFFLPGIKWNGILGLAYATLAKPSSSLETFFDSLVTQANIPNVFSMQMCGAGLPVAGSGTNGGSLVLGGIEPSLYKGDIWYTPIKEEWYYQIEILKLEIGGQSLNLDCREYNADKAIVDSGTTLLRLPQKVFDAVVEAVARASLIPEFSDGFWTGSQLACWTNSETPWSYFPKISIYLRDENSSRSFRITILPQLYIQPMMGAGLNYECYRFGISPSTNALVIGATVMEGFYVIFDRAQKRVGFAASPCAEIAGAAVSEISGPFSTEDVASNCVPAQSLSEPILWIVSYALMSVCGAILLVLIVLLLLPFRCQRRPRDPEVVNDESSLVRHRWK

Chain of memapsin 2 (P56817 46-501): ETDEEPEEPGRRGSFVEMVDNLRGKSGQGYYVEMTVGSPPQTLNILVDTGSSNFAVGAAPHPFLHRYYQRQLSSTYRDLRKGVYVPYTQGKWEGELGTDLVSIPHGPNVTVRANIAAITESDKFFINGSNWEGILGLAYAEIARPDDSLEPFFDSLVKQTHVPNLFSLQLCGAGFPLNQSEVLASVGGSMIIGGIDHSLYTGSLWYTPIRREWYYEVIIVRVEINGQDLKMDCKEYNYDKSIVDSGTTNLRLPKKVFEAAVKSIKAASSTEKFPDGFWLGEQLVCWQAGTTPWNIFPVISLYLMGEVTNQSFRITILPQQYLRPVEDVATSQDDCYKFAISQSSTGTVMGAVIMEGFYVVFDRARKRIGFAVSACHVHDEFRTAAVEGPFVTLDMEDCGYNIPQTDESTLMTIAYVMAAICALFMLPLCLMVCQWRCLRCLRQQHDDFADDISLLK

Ki [1] [nM] | IC50 [2] [nM] | Ki [3] [nM] | Ki [4] [nM] | Structure (SMILES)
< 100 | < 6000 | < 100 | < 100 | COCSC[C@H](NC(=O)OCc1nc(C)cs1)C(=O)N[C@H](CC(C)C)[C@@H](O)C[C@@H](C)C(=O)N[C@@H](C(=O)NCC(C)C)C(C)C [Structure 36]
< 100 | > 100000 | 100 to 1000 | 100 to 1000 | CCC(C)S(=O)(=O)C[C@H](NC(=O)OCc1nc(C)cs1)C(=O)N[C@H](CC(C)C)[C@@H](O)C[C@@H](C)C(=O)N[C@@H](C(=O)NCC(C)C)C(C)C (stereo partly shown) [Structure 67]
< 100 | < 6000 | < 100 | 100 to 1000 | CCC(CC)SC[C@H](NC(=O)OCc1nc(C)cs1)C(=O)N[C@H](CC(C)C)[C@@H](O)C[C@@H](C)C(=O)N[C@@H](C(=O)NCC(C)C)C(C)C [Structure 72]
< 100 | < 6000 | < 100 | 100 to 1000 | Cc1csc(COC(=O)N[C@@H](CSC(C)C)C(=O)N[C@H](CC(C)C)[C@@H](O)C[C@@H](C)C(=O)N[C@@H](C(=O)NCC(C)C)C(C)C)n1 [Structure 32]
< 100 | > 100000 | < 100 | 100 to 1000 | CSC[C@H](NC(=O)CCc1nc(C)cs1)C(=O)N[C@H](CC(C)C)[C@@H](O)C[C@@H](C)C(=O)N[C@@H](C(=O)NCC(C)C)C(C)C [Structure 39]
< 100 | > 100000 | 100 to 1000 | 100 to 1000 | Cc1csc(CCC(=O)N[C@@H](CS(C)(=O)=O)C(=O)N[C@H](CC(C)C)[C@@H](O)C[C@@H](C)C(=O)N[C@@H](C(=O)NCC(C)C)C(C)C)n1 [Structure 40]
< 100 | > 100000 | 100 to 1000 | 100 to 1000 | COCS(=O)(=O)C[C@H](NC(=O)OCc1nc(C)cs1)C(=O)N[C@H](CC(C)C)[C@@H](O)C[C@@H](C)C(=O)N[C@@H](C(=O)NCC(C)C)C1CCCCC1 [Structure 35]
< 100 | < 6000 | 100 to 1000 | 100 to 1000 | Cc1nc(COC(=O)N[C@@H](CS(C)(=O)=O)C(=O)N[C@H](CC(C)C)[C@@H](O)C[C@@H](C)C(=O)N[C@@H](C(=O)NN(C)C)C(C)C)c(C)o1 [Structure 57]
< 100 | 6000 to 100000 | 100 to 1000 | 100 to 1000 | Cc1csc(COC(=O)N[C@@H](CS(=O)(=O)C(C)C)C(=O)N[C@H](CC(C)C)[C@@H](O)C[C@@H](C)C(=O)N[C@@H](C(=O)NCC(C)C)C(C)C)n1 [Structure 31]
100 to 1000 | < 6000 | < 100 | 100 to 1000 | CSC[C@H](NC(=O)[C@@H](C)Cc1nc(C)cs1)C(=O)N[C@H](CC(C)C)[C@@H](O)C[C@@H](C)C(=O)N[C@@H](C(=O)NCC(C)C)C(C)C [Structure 64]
< 100 | < 6000 | < 100 | < 100 | CSC[C@H](NC(=O)OCc1nc(C)sc1C)C(=O)N[C@H](CC(C)C)[C@@H](O)C[C@@H](C)C(=O)N[C@@H](C(=O)NCC(C)C)C(C)C [Structure 53]
> 1000 | < 6000 | 100 to 1000 | > 1000 | COC(=O)[C@H](NC(=O)[C@H](C)C[C@H](O)[C@@H](CC(C)C)NC(=O)[C@H](CSC)NC(=O)OCc1nc(C)cs1)C(C)C [Structure 88]
< 100 | > 100000 | 100 to 1000 | 100 to 1000 | Cc1csc(CC(C)C(=O)N[C@@H](CS(C)(=O)=O)C(=O)N[C@H](CC(C)C)[C@@H](O)C[C@@H](C)C(=O)N[C@@H](C(=O)NCC(C)C)C(C)C)n1 (stereo partly shown) [Structure 37]
100 to 1000 | 6000 to 100000 | < 100 | < 100 | CSC[C@H](NC(=O)OCc1nc(C)oc1C)C(=O)N[C@H](Cc1ccccc1)[C@@H](O)C[C@@H](C)C(=O)N[C@@H](C(=O)NCC(C)C)C(C)C [Structure 50]
< 100 | < 6000 | < 100 | 100 to 1000 | CCC(C)SC[C@H](NC(=O)OCc1nc(C)cs1)C(=O)N[C@H](CC(C)C)[C@@H](O)C[C@@H](C)C(=O)N[C@@H](C(=O)NCC(C)C)C(C)C (stereo partly shown) [Structure 66]
< 100 | > 100000 | < 100 | < 100 | C=CCS(=O)(=O)C[C@H](NC(=O)CCn1nc(C)cc1C)C(=O)N[C@H](CC(C)C)[C@@H](O)C[C@@H](C)C(=O)N[C@@H](C(=O)NCC(C)C)C(C)C [Structure 18]
< 100 | 6000 to 100000 | < 100 | 100 to 1000 | CSC[C@H](NC(=O)OCc1nc(C)cs1)C(=O)N[C@H](CC(C)C)[C@@H](O)C[C@@H](C)C(=O)N[C@@H](C(=O)NCC(C)C)C(C)C [Structure 17]
< 100 | < 6000 | 100 to 1000 | 100 to 1000 | CCS(=O)(=O)C[C@H](NC(=O)OCc1nc(C)cs1)C(=O)N[C@H](CC(C)C)[C@@H](O)C[C@@H](C)C(=O)N[C@@H](C(=O)NCC(C)C)C(C)C [Structure 22]
100 to 1000 | 6000 to 100000 | < 100 | 100 to 1000 | CSC[C@H](NC(=O)CCn1nc(C)cc1C)C(=O)N[C@H](CC(C)C)[C@@H](O)C[C@@H](C)C(=O)N[C@@H](C(=O)NCC(C)C)C(C)C [Structure 4]
< 100 | < 6000 | 100 to 1000 | < 100 | Cc1nc(COC(=O)N[C@@H](CS(C)(=O)=O)C(=O)N[C@H](CC(C)C)[C@@H](O)C[C@@H](C)C(=O)N[C@@H](C(=O)NCC(C)C)C(C)C)c(C)s1 [Structure 54]
< 100 | > 100000 | < 100 | 100 to 1000 | Cc1csc(COC(=O)N[C@@H](CSC2CCCC2)C(=O)N[C@H](CC(C)C)[C@@H](O)C[C@@H](C)C(=O)N[C@@H](C(=O)NCC(C)C)C(C)C)n1 [Structure 56]
< 100 | < 6000 | < 100 | 100 to 1000 | CC[C@@H](Cc1nc(C)cs1)C(=O)N[C@@H](CSC)C(=O)N[C@H](CC(C)C)[C@@H](O)C[C@@H](C)C(=O)N[C@@H](C(=O)NCC(C)C)C(C)C [Structure 75]
< 100 | < 6000 | < 100 | < 100 | Cc1csc(COC(=O)N[C@@H](CS(C)(=O)=O)C(=O)N[C@H](Cc2cc(F)cc(F)c2)[C@@H](O)C[C@@H](C)C(=O)N[C@@H](C(=O)NCC(C)C)C(C)C)n1 [Structure 79]
< 100 | > 100000 | < 100 | < 100 | CC[C@@H](Cn1nc(C)cc1C)C(=O)N[C@@H](CS(C)(=O)=O)C(=O)N[C@@H](CC(C)C)[C@@H](O)C[C@@H](C)C(=O)N[C@@H](C(=O)NCC(C)C)C(C)C [Structure 7]
< 100 | 6000 to 100000 | < 100 | < 100 | Cc1csc(COC(=O)N[C@@H](CS(C)(=O)=O)C(=O)N[C@H](Cc2ccccc2)[C@@H](O)C[C@@H](C)C(=O)N[C@@H](C(=O)NCC(C)C)C(C)C)n1 [Structure 55]
< 100 | < 6000 | 100 to 1000 | > 1000 | Cc1coc(COC(=O)N[C@@H](CS(C)(=O)=O)C(=O)N[C@@H](CC(C)C)[C@@H](O)C[C@@H](C)C(=O)N[C@H](C(=O)NCC(C)C)C(C)C)n1 [Structure 95]
< 100 | 6000 to 100000 | 100 to 1000 | 100 to 1000 | Cc1nc(COC(=O)N[C@@H](CS(=O)(=O)C(C)C)C(=O)N[C@H](CC(C)C)[C@@H](O)C[C@@H](C)C(=O)N[C@@H](C(=O)NCC(C)C)C(C)C)c(C)o1 [Structure 59]
< 100 | < 6000 | 100 to 1000 | 100 to 1000 | Cc1nc(COC(=O)N[C@@H](CS(C)(=O)=O)C(=O)N[C@H](CC(C)C)[C@@H](O)C[C@@H](C)C(=O)N[C@@H](C(=O)NCc2ccncc2)C(C)C)c(C)o1 [Structure 48]
